{"source": "patent US20090123907A1", "about": "(priority 2004, published 2009)", "format_in_all_cases": "cell-based", "key": {"platelets [1]": {"system": "platelets", "experiment": "Platelets in 2% lysine citrate and CPD, 15 days storage", "settings": "PRP, CPD + 2% lysine citrate, room temperature", "description": "The second experiment was similar to the first platelet experiment reported above with the primary difference that the primary anticoagulant was CPD (citrate-phosphate-dextrose). This anticoagulant contains approximately 0.4% citrate by weight but also contains dextrose as an energy source for the platelets (and also, unfortunately, for any bacteria that may be present). […] It was believed that the CPD might further stabilize the platelets by providing an energy source."}, "platelets [2]": {"system": "platelets", "experiment": "Platelet preservation in platelet rich plasma with 1% citrate (lysine citrate)", "settings": "PRP 1% citrate, room temperature", "procedure": "(§1) In the experiment anticoagulated blood (0.4% citrate by weight) was centrifuged to produce platelet Rich Plasma (PRP). To test samples of PRP citric acid stock solution containing sufficient lysine to bring the solution pH to 7.0 was added to increase the citrate concentration to 1% by weight. Following this addition the pH of the mixture was 6.7. It will be apparent to one of skill in the art that the precise ratio of basic amino acid to citrate can be altered to adjust the pH of the either the stock solution or the final blood mixture. One sample of original PRP was used as the Normal Control, and one sample of the lysine citrate PRP was used as the Citrate Control. One sample of original PRP was inoculated with cultured Staphylococcus epidermidis to a final concentration of about 10 cfu/ml—this formed the Spiked Normal. […] The samples were incubated at room temperature for five days. Each day the number of platelets in each sample was counted; each sample was also tested for LDH (lactate dehydrogenase) and for the ability to induce a clot. Following the tests an aliquot of each sample was subcultured on nutrient agar and incubated under growth conditions."}, "[3]": {"system": "Staphylococcus epidermidis", "experiment": "Colony counts of PRP samples subcultured on nutrient agar", "settings": "for Colony Counts: PRP 1% citrate spiked with about 10 cfu/ml, room temperature", "procedure": "as §1"}, "[4]": {"settings": "Day 1, spiked with Staphylococcus epidermidis about 10 cfu/ml"}, "[5]": {"settings": "Day 2, spiked with Staphylococcus epidermidis about 10 cfu/ml"}, "[6]": {"settings": "Day 3, spiked with Staphylococcus epidermidis about 10 cfu/ml"}, "[7]": {"settings": "Day 4, spiked with Staphylococcus epidermidis about 10 cfu/ml"}, "[8]": {"settings": "Day 5, spiked with Staphylococcus epidermidis about 10 cfu/ml"}}, "data": [{"smiles": "NCCCC[C@H](N)C(=O)O.O=C(O)CC(O)(CC(=O)O)C(=O)O", "note": "[Lysine Citrate, lysine citrate]", "values": [{"measurement": "Clotting time", "setting": "platelets [1]; Day 1", "value": 29, "unit": "s"}, {"measurement": "Count (platelets)", "setting": "platelets [1]; Day 1", "value": "2.41 × 10^5 per μl"}, {"measurement": "LDH", "setting": "platelets [1]; Day 1", "value": 98, "unit": "IU/L"}, {"measurement": "Clotting time", "setting": "platelets [1]; Day 2", "value": 30, "unit": "s"}, {"measurement": "Count (platelets)", "setting": "platelets [1]; Day 2", "value": "2.41 × 10^5 per μl"}, {"measurement": "LDH", "setting": "platelets [1]; Day 2", "value": 96, "unit": "IU/L"}, {"measurement": "Clotting time", "setting": "platelets [1]; Day 3", "value": 30, "unit": "s"}, {"measurement": "Count (platelets)", "setting": "platelets [1]; Day 3", "value": "2.40 × 10^5 per μl"}, {"measurement": "LDH", "setting": "platelets [1]; Day 3", "value": 97, "unit": "IU/L"}, {"measurement": "Clotting time", "setting": "platelets [1]; Day 4", "value": 31, "unit": "s"}, {"measurement": "Count (platelets)", "setting": "platelets [1]; Day 4", "value": "2.40 × 10^5 per μl"}, {"measurement": "LDH", "setting": "platelets [1]; Day 4", "value": 98, "unit": "IU/L"}, {"measurement": "Clotting time", "setting": "platelets [1]; Day 5", "value": 32, "unit": "s"}, {"measurement": "Count (platelets)", "setting": "platelets [1]; Day 5", "value": "2.38 × 10^5 per μl"}, {"measurement": "LDH", "setting": "platelets [1]; Day 5", "value": 99, "unit": "IU/L"}, {"measurement": "Clotting time", "setting": "platelets [1]; Day 6", "value": 30, "unit": "s"}, {"measurement": "Count (platelets)", "setting": "platelets [1]; Day 6", "value": "2.41 × 10^5 per μl"}, {"measurement": "LDH", "setting": "platelets [1]; Day 6", "value": 101, "unit": "IU/L"}, {"measurement": "Clotting time", "setting": "platelets [1]; Day 7", "value": 28, "unit": "s"}, {"measurement": "Count (platelets)", "setting": "platelets [1]; Day 7", "value": "2.42 × 10^5 per μl"}, {"measurement": "LDH", "setting": "platelets [1]; Day 7", "value": 100, "unit": "IU/L"}, {"measurement": "Clotting time", "setting": "platelets [1]; Day 8", "value": 28, "unit": "s"}, {"measurement": "Count (platelets)", "setting": "platelets [1]; Day 8", "value": "2.40 × 10^5 per μl"}, {"measurement": "LDH", "setting": "platelets [1]; Day 8", "value": 102, "unit": "IU/L"}, {"measurement": "Clotting time", "setting": "platelets [1]; Day 9", "value": 31, "unit": "s"}, {"measurement": "Count (platelets)", "setting": "platelets [1]; Day 9", "value": "2.38 × 10^5 per μl"}, {"measurement": "LDH", "setting": "platelets [1]; Day 9", "value": 100, "unit": "IU/L"}, {"measurement": "Clotting time", "setting": "platelets [1]; Day 10", "value": 30, "unit": "s"}, {"measurement": "Count (platelets)", "setting": "platelets [1]; Day 10", "value": "2.38 × 10^5 per μl"}, {"measurement": "LDH", "setting": "platelets [1]; Day 10", "value": 98, "unit": "IU/L"}, {"measurement": "Clotting time", "setting": "platelets [1]; Day 11", "value": 29, "unit": "s"}, {"measurement": "Count (platelets)", "setting": "platelets [1]; Day 11", "value": "2.35 × 10^5 per μl"}, {"measurement": "LDH", "setting": "platelets [1]; Day 11", "value": 103, "unit": "IU/L"}, {"measurement": "Clotting time", "setting": "platelets [1]; Day 12", "value": 30, "unit": "s"}, {"measurement": "Count (platelets)", "setting": "platelets [1]; Day 12", "value": "2.34 × 10^5 per μl"}, {"measurement": "LDH", "setting": "platelets [1]; Day 12", "value": 101, "unit": "IU/L"}, {"measurement": "Clotting time", "setting": "platelets [1]; Day 13", "value": 30, "unit": "s"}, {"measurement": "Count (platelets)", "setting": "platelets [1]; Day 13", "value": "2.34 × 10^5 per μl"}, {"measurement": "LDH", "setting": "platelets [1]; Day 13", "value": 103, "unit": "IU/L"}, {"measurement": "Clotting time", "setting": "platelets [1]; Day 14", "value": 31, "unit": "s"}, {"measurement": "Count (platelets)", "setting": "platelets [1]; Day 14", "value": "2.35 × 10^5 per μl"}, {"measurement": "LDH", "setting": "platelets [1]; Day 14", "value": 105, "unit": "IU/L"}, {"measurement": "Clotting time", "setting": "platelets [1]; Day 15", "value": 26, "unit": "s"}, {"measurement": "Count (platelets)", "setting": "platelets [1]; Day 15", "value": "2.28 × 10^5 per μl"}, {"measurement": "LDH", "setting": "platelets [1]; Day 15", "value": 122, "unit": "IU/L"}, {"measurement": "Clot time", "setting": "platelets [2]; [4]", "value": 29, "unit": "s"}, {"measurement": "Count (platelets)", "setting": "platelets [2]; [4]", "value": "2.99 × 10^5 per μl"}, {"measurement": "LDH", "setting": "platelets [2]; [4]", "value": 131, "unit": "IU/L"}, {"measurement": "Clot time", "setting": "platelets [2]; Day 1, unspiked", "value": 35, "unit": "s"}, {"measurement": "Count (platelets)", "setting": "platelets [2]; Day 1, unspiked", "value": "3.2 × 10^5 per μl"}, {"measurement": "LDH", "setting": "platelets [2]; Day 1, unspiked", "value": 133, "unit": "IU/L"}, {"measurement": "Clot time", "setting": "platelets [2]; [5]", "value": 32, "unit": "s"}, {"measurement": "Count (platelets)", "setting": "platelets [2]; [5]", "value": "3.0 × 10^5 per μl"}, {"measurement": "LDH", "setting": "platelets [2]; [5]", "value": 130, "unit": "IU/L"}, {"measurement": "Clot time", "setting": "platelets [2]; Day 2, unspiked", "value": 30, "unit": "s"}, {"measurement": "Count (platelets)", "setting": "platelets [2]; Day 2, unspiked", "value": "3.1 × 10^5 per μl"}, {"measurement": "LDH", "setting": "platelets [2]; Day 2, unspiked", "value": 133, "unit": "IU/L"}, {"measurement": "Clot time", "setting": "platelets [2]; [6]", "value": 30, "unit": "s"}, {"measurement": "Count (platelets)", "setting": "platelets [2]; [6]", "value": "3.0 × 10^5 per μl"}, {"measurement": "LDH", "setting": "platelets [2]; [6]", "value": 133, "unit": "IU/L"}, {"measurement": "Clot time", "setting": "platelets [2]; Day 3, unspiked", "value": 32, "unit": "s"}, {"measurement": "Count (platelets)", "setting": "platelets [2]; Day 3, unspiked", "value": "3.3 × 10^5 per μl"}, {"measurement": "LDH", "setting": "platelets [2]; Day 3, unspiked", "value": 134, "unit": "IU/L"}, {"measurement": "Clot time", "setting": "platelets [2]; [7]", "value": 30, "unit": "s"}, {"measurement": "Count (platelets)", "setting": "platelets [2]; [7]", "value": "3.2 × 10^5 per μl"}, {"measurement": "LDH", "setting": "platelets [2]; [7]", "value": 131, "unit": "IU/L"}, {"measurement": "Clot time", "setting": "platelets [2]; Day 4, unspiked", "value": 35, "unit": "s"}, {"measurement": "Count (platelets)", "setting": "platelets [2]; Day 4, unspiked", "value": "3.5 × 10^5 per μl"}, {"measurement": "LDH", "setting": "platelets [2]; Day 4, unspiked", "value": 133, "unit": "IU/L"}, {"measurement": "Clotting time", "setting": "platelets [2]; [8]", "value": 32, "unit": "s"}, {"measurement": "Count (platelets)", "setting": "platelets [2]; [8]", "value": "3.0 × 10^5 per μl"}, {"measurement": "LDH", "setting": "platelets [2]; [8]", "value": 131, "unit": "IU/L"}, {"measurement": "Clotting time", "setting": "platelets [2]; Day 5, unspiked", "value": 33, "unit": "s"}, {"measurement": "Count (platelets)", "setting": "platelets [2]; Day 5, unspiked", "value": "3.1 × 10^5 per μl"}, {"measurement": "LDH", "setting": "platelets [2]; Day 5, unspiked", "value": 135, "unit": "IU/L"}, {"measurement": "Colony Counts", "setting": "[3]; Day 1", "value": 10}, {"measurement": "Colony Counts", "setting": "[3]; Day 2", "value": 7}, {"measurement": "Colony Counts", "setting": "[3]; Day 3", "value": 5}, {"measurement": "Colony Counts", "setting": "[3]; Day 4", "value": 9}, {"measurement": "Colony Counts", "setting": "[3]; Day 5", "value": 7}, {"measurement": "bacteria following plating onto nutrient agar", "setting": "[3]; unspiked PRP 1% citrate", "value": "no bacteria"}]}]}
